The experiment deals with T1, recombinant guanylate cyclase reporter cell line (Rattus norvegicus, UniProt P19686+P20595).
T1 construct: expressed in transfected cells
T1 sequence (P20595 1-619): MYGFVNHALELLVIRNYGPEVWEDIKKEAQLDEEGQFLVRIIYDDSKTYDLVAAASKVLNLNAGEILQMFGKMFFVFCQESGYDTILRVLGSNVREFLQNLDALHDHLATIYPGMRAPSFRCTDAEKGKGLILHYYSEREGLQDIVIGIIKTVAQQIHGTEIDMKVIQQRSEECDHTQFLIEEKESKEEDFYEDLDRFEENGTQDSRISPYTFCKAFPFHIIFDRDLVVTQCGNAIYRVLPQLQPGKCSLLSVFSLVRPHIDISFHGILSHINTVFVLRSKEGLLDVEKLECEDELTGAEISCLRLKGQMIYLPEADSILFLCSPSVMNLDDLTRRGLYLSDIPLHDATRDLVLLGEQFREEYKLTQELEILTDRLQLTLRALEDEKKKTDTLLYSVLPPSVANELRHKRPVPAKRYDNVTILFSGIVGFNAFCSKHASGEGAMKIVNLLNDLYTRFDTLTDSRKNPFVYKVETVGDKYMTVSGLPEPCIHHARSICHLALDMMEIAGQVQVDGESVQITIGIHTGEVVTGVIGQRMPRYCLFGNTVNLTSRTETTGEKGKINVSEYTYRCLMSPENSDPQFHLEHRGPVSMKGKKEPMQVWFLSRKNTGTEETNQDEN
T1 sequence (P19686 1-690): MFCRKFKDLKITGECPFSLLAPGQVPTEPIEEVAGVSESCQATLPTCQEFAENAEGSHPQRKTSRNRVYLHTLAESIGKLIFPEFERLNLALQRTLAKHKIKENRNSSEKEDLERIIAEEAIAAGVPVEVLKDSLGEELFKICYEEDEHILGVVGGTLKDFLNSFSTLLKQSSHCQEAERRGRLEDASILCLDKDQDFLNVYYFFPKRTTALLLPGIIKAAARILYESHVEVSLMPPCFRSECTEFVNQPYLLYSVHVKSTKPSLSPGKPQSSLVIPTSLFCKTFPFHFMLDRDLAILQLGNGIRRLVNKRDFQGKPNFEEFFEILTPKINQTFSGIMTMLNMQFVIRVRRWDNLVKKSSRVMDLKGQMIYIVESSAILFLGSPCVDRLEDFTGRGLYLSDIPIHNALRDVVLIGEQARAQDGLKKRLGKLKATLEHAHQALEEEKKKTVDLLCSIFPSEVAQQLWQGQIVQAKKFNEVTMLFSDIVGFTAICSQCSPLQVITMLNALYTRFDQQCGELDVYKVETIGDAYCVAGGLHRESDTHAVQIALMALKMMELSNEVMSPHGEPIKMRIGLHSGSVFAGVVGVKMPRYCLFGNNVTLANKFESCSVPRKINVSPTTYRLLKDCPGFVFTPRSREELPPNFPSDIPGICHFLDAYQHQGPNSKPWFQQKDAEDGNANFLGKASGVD
The experiment in a line: Action on recombinant guanylate cyclase reporter cell line. Type of experiment: cell-based. To be noted: in some cases mean values obtained from individual determinations. Here is the method:
B-2. Action on Recombinant Guanylate Cyclase Reporter Cell Line
The cellular action of the compounds according to the invention is determined on a recombinant guanylate cyclase reporter cell line, as described in F. Wunder et al., Anal. Biochem. 339, 104-112 (2005).
Representative values (MEC=minimal effective concentration) for the compounds according to the invention are shown in the following table (in some cases as mean values obtained from individual determinations): […]

Take `Cc1nc2c(OCc3c(F)cccc3F)cccn2c1C(=O)NC(CO)c1ccc(F)cc1` (single isomer, unassigned; ent-8) [Example 107, ent-8-[(2,6-Difluorobenzyl)oxy]-N-[1-(4-fluorophenyl)-2-hydroxyethyl]-2-methylimidazo[1,2-a]-pyridine-3-carboxamide]: the “MEC (minimal effective concentration)” value was found to be 0.1 µM. For the compound `Cc1nc2c(OCc3c(F)cccc3F)cccn2c1C(=O)NCC(O)C(F)(F)F` (single isomer, unassigned; ent-8) [Example 109, ent-8-[(2,6-Difluorobenzyl)oxy]-2-methyl-N-(3,3,3-trifluoro-2-hydroxypropyl)imidazo[1,2-a]-pyridine-3-carboxamide], the “MEC (minimal effective concentration)” value amounted to 0.1 µM. The result for `Cc1nc2c(OCc3c(F)cccc3F)cccn2c1C(=O)NC(CO)CC(F)(F)F` (single isomer, unassigned; ent-8) [Example 121, ent-8-[(2,6-Difluorobenzyl)oxy]-2-methyl-N-(4,4,4-trifluoro-1-hydroxybutan-2-yl)imidazo[1,2-a]-pyridine-3-carboxamide] reads 0.03 µM; that for `Cc1nc2c(OCc3c(F)cccc3F)cccn2c1C(=O)NC(CO)CCC(F)(F)F` (single isomer, unassigned; ent-8) [Example 122, ent-8-[(2,6-Difluorobenzyl)oxy]-2-methyl-N-(5,5,5-trifluoro-1-hydroxypentan-2-yl)imidazo[1,2-a]-pyridine-3-carboxamide], 0.03 µM; that for `Cc1nc2c(OCc3c(F)cccc3F)cccn2c1C(=O)NC(CO)CCCC(F)(F)F` (single isomer, unassigned; ent-8) [Example 123, ent-8-[(2,6-Difluorobenzyl)oxy]-2-methyl-N-(6,6,6-trifluoro-1-hydroxyhexan-2-yl)imidazo[1,2-a]-pyridine-3-carboxamide], 0.03 µM. As for `Cc1nc2c(OCc3c(F)cccc3F)cccn2c1C(=O)NC(CC(F)(F)F)C(C)(C)O` (single isomer, unassigned; ent-8) [Example 154, ent-8-[(2,6-Difluorobenzyl)oxy]-2-methyl-N-(1,1,1-trifluoro-4-hydroxy-4-methylpentan-3-yl)-imidazo[1,2-a]pyridine-3-carboxamide], the “MEC (minimal effective concentration)” value amounted to 0.03 µM.

Turning to `Cc1nc2c(OCc3c(F)cccc3F)cccn2c1C(=O)NC(CCC(F)(F)F)C(C)(C)O` (single isomer, unassigned; ent-8) [Example 155, ent-8-[(2,6-Difluorobenzyl)oxy]-2-methyl-N-(6,6,6-trifluoro-2-hydroxy-2-methylhexan-3-yl)-imidazo[1,2-a]pyridine-3-carboxamide], the “MEC (minimal effective concentration)” value was 0.1 µM. As for `Cc1nc2c(OCc3c(F)cccc3F)cccn2c1C(=O)NC(CCCC(F)(F)F)C(C)(C)O` (single isomer, unassigned; ent-8) [Example 156, ent-8-[(2,6-Difluorobenzyl)oxy]-2-methyl-N-(7,7,7-trifluoro-2-hydroxy-2-methylheptan-3-yl)-imidazo[1,2-a]pyridine-3-carboxamide], the figure is 0.03 µM; as for `CCOCC(CO)NC(=O)c1c(C)nc2c(OCc3c(F)cccc3F)cccn12` (single isomer, unassigned; ent-8) [Example 161, ent-8-[(2,6-Difluorobenzyl)oxy]-N-(1-ethoxy-3-hydroxypropan-2-yl)-2-methylimidazo[1,2-a]-pyridine-3-carboxamide (enantiomer A)], 1.0 µM. As for `CCCCC(NC(=O)c1c(C)nc2c(OC(C)c3c(F)cccc3F)cc(C)cn12)C(C)(C)O` (single isomer, unassigned; ent-8) [Example 171, ent-8-[1-(2,6-Difluorophenyl)ethoxy]-N-(2-hydroxy-2-methylheptan-3-yl)-2,6-dimethylimidazo-[1,2-a]pyridine-3-carboxamide], the figure is 1.0 µM.

Regarding `Cc1nc2c(OCc3ncccc3F)cccn2c1C(=O)NC(CCCC(F)(F)F)C(C)(C)O` (single isomer, unassigned; ent-8) [Example 182, ent-8-[(3-fluoropyridin-2-yl)methoxy]-2-methyl-N-(7,7,7-trifluoro-2-hydroxy-2-methylheptan-3-yl)imidazo[1,2-a]pyridine-3-carboxamide (enantiomer A)], the “MEC (minimal effective concentration)” value came to 0.65 µM.

As to `Cc1nc2c(OCc3ncccc3F)cccn2c1C(=O)NC(CCCC(F)(F)F)C(C)(C)O` (single isomer, unassigned; ent-8) [Example 183, ent-8-[(3-fluoropyridin-2-yl)methoxy]-2-methyl-N-(7,7,7-trifluoro-2-hydroxy-2-methylheptan-3-yl)imidazo[1,2-a]pyridine-3-carboxamide (enantiomer B)], the “MEC (minimal effective concentration)” value worked out at 0.3 µM. Turning to `Cc1cc(OCc2ncccc2F)c2nc(C)c(C(=O)NC(CC(F)(F)F)C(C)(C)O)n2c1` (single isomer, unassigned; ent-8) [Example 185, ent-8-[(3-fluoropyridin-2-yl)methoxy]-2,6-dimethyl-N-(1,1,1-trifluoro-4-hydroxy-4-methylpentan-3-yl)imidazo[1,2-a]pyridine-3-carboxamide (enantiomer B)], the “MEC (minimal effective concentration)” value was 0.3 µM. As for `Cc1cc(OCc2c(F)cncc2F)c2nc(C)c(C(=O)NC(CCCC(F)(F)F)C(C)(C)O)n2c1` (single isomer, unassigned; ent-8) [Example 189, ent-8-[(3,5-difluoropyridine-4-yl)methoxy]-2,6-dimethyl-N-(7,7,7-trifluoro-2-hydroxy-2-methylheptan-3-yl)imidazo[1,2-a]pyridine-3-carboxamide (enantiomer A)], the figure is 1 µM. As for `Cc1cc(OCc2ncccc2F)c2nc(C)c(C(=O)NC(CCCC(F)(F)C(F)(F)F)C(C)(C)O)n2c1` (single isomer, unassigned; ent-8) [Example 191, ent-8-[(3-fluoropyridin-2-yl)methoxy]-2,6-dimethyl-N-(7,7,8,8,8-pentafluoro-2-hydroxy-2-methyloctan-3-yl)imidazo[1,2-a]pyridine-3-carboxamide (enantiomer A)], the figure is 3 µM; as for `Cc1cc(OCc2ncccc2F)c2nc(C)c(C(=O)NC(CCCC(F)(F)C(F)(F)F)C(C)(C)O)n2c1` (single isomer, unassigned; ent-8) [Example 192, ent-8-[(3-fluoropyridin-2-yl)methoxy]-2,6-dimethyl-N-(7,7,8,8,8-pentafluoro-2-hydroxy-2-methyloctan-3-yl)imidazo[1,2-a]pyridine-3-carboxamide (enantiomer B)], 2 µM. The result for `Cc1cc(OCc2c(F)cncc2F)c2nc(C)c(C(=O)NC(CCC(F)(F)C(F)(F)F)C(C)(C)O)n2c1` (single isomer, unassigned; ent-8) [Example 193, ent-8-[(3,5-difluoropyridine-4-yl)methoxy]-2,6-dimethyl-N-(6,6,7,7,7-pentafluoro-2-hydroxy-2-methylheptan-3-yl)imidazo[1,2-a]pyridine-3-carboxamide (enantiomer A)] reads 1 µM.

(Values after patent US8946215B2, “Hydroxy-substituted imidazo[1,2-a]pyridinecarboxamides and their use” (Bayer Pharma Aktiengesellschaft, priority 2012, dated 2015).)
